Test results as given in patent US6204293A, “Inhibitors of protein isoprenyl transferases” (University of Pittsburgh, priority 1998, dated 2001).
Counter-ions that a name gives are not always drawn.

biological target: T1, Rat brain protein farnesyltransferase (Rattus norvegicus, UniProt Q02293+Q04631); experiment: % inhibition of farnesylation, scintillation proximity assay with biotin-K Ras B fragment; assay type: biochemical; conditions: Table 1; 1 × 10^-5 M
T1 construct: Rat brain protein farnesyltransferase activity is measured; from tissue; host or cells: rat brain
Summary of the method: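 Scintillation proximity read-out of farnesylation, using a biotinylated K Ras B fragment (0.1 mM final) in place of biotin-lamin. Enzyme purified from rat brain; results given as % inhibition.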

T1 sequence (Q02293 whole entry, the tested form may be a part, one chain of several): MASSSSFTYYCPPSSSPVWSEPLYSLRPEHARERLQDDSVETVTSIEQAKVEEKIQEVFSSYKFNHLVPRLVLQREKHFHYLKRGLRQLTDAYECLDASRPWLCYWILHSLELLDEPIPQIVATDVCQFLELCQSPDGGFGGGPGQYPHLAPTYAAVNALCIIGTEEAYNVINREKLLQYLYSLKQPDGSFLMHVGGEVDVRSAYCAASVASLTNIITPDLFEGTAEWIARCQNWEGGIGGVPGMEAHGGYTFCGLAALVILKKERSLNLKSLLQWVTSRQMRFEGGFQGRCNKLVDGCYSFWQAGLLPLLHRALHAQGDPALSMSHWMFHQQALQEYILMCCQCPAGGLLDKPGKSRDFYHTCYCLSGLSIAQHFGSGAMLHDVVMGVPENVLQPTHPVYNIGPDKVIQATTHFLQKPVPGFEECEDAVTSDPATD

% inhibition at 1 × 10^-5 M [%] | Structure (SMILES)
> 50 | CSCC[C@H](NC(=O)c1ccc(NC(=O)[C@@H]2C[C@@H](O)CN2)cc1-c1ccccc1)C(=O)O [Example 952]

same assay, conditions: Table 2; 1 × 10^-6 M

Structure (SMILES) | % inhibition at 1 × 10^-6 M [%]
CSCC[C@H](NC(=O)c1ccc(CN(C(CC2CCCCC2)CC2CCCCC2)S(=O)(=O)c2ccccc2)cc1-c1ccccc1C)C(=O)O [Example 911] | 65
CSCC[C@H](NC(=O)c1ccc(NC(=O)OCCCl)cc1-c1ccccc1)C(=O)O [Example 979] | 26

Continued, values first:

% inhibition at 1 × 10^-6 M [%] | Structure (SMILES)
69 | CSCC[C@H](NC(=O)c1ccc(CNCc2ccccc2)cc1-c1ccccc1)C(=O)O.Cl [Example 936]
64 | CSCC[C@H](NC(=O)c1ccc(CN(C)C(C)(C)Cc2ccccc2)cc1-c1ccccc1C)C(=O)O [Example 982]
92 | CSCC[C@H](NC(=O)c1ccc(CN2CCC(OCc3ccccc3)C2)cc1-c1ccccc1C)C(=O)O (some centres unmarked) [Example 988]
88 | CSCC[C@H](NC(=O)c1ccc(CN2CCCC(OCc3ccccc3)C2)cc1-c1ccccc1C)C(=O)O (some centres unmarked) [Example 989]

same assay, conditions: Table 3; 1 × 10^-7 M

Structure (SMILES) | % inhibition at 1 × 10^-7 M [%]
CCCCN(CCCC)C(=O)CNCc1ccc(C(=O)N[C@@H](CCSC)C(=O)O)c(-c2ccccc2C)c1 [Example 912] | 85
CCCCN(CCCC)C(=O)CN(C)Cc1ccc(C(=O)N[C@@H](CCSC)C(=O)O)c(-c2ccccc2C)c1 [Example 913] | 89
CCSCC(CC1CCCCC1)N(Cc1ccc(C(=O)N[C@@H](CCSC)C(=O)O)c(-c2ccccc2C)c1)CC(C)C (some centres unmarked) [Example 945] | 80
CCSC[C@H](CC1CCCCC1)N(Cc1ccc(C(=O)N[C@@H](CCSC)C(=O)O)c(-c2ccccc2C)c1)C(C)=O [Example 947] | 79
CCSC[C@H](CC1CCCCC1)N(Cc1ccc(C(=O)N[C@@H](CCSC)C(=O)O)c(-c2ccccc2C)c1)C(=O)OC(C)(C)C [Example 948] | 75
CCCCS(=O)(=O)N(Cc1ccc(C(=O)N[C@@H](CCSC)C(=O)O)c(-c2ccccc2C)c1)[C@H](CSCC)CC1CCCCC1 [Example 950] | 71
CSCC[C@H](NC(=O)c1ccc(NC[C@@H]2C[C@H](S)CN2)cc1-c1ccccc1)C(=O)O [Example 959] | > 50
CSCC[C@H](NC(=O)c1ccc(CN2CCCC(OCC3CCCCC3)C2)cc1-c1ccccc1C)C(=O)O (some centres unmarked) [Example 990] | 84

Second part, the compound after the results:

% inhibition at 1 × 10^-7 M [%] | Structure (SMILES)
91 | CSCC[C@H](NC(=O)c1ccc(CNCC(=O)N(Cc2ccccc2)Cc2ccccc2)cc1-c1ccccc1C)C(=O)O [Example 914]
78 | CCCCN(CCCC)Cc1ccc(C(=O)N[C@@H](CCSC)C(=O)O)c(-c2ccccc2C)c1 [Example 917]
81 | CCCC(CCC)NOCc1ccc(C(=O)N[C@@H](CCSC)C(=O)O)c(-c2ccccc2C)c1 [Example 929]
57 | CCSC[C@H](CC1CCCCC1)N(Cc1ccc(C(=O)N[C@@H](CCSC)C(=O)O)c(-c2ccccc2C)c1)C(=O)c1ccccc1 [Example 949]
71 | CCSC[C@H](CC1CCCCC1)N(Cc1ccc(C(=O)N[C@@H](CCSC)C(=O)O)c(-c2ccccc2C)c1)S(=O)(=O)c1ccccc1 [Example 951]
90 | CSCC[C@H](NC(=O)c1ccc(CN2CCC[C@@H]2COCc2ccccc2)cc1-c1ccccc1C)C(=O)O [Example 993]

same assay, conditions: Table 4; 1 × 10^-8 M

Structure (SMILES) | % inhibition at 1 × 10^-8 M [%]
CCCCS(=O)(=O)N(CCC1CCCCC1)Cc1ccc(C(=O)N[C@@H](CCSC)C(=O)O)c(-c2ccccc2C)c1 [Example 916] | 96
CCSC[C@H](CC1CCCCC1)N(C)Cc1ccc(C(=O)N[C@@H](CCSC)C(=O)O)c(-c2ccccc2C)c1 [Example 944] | 88
CCSC[C@H](CC1CCCCC1)N(C=O)Cc1ccc(C(=O)N[C@@H](CCSC)C(=O)O)c(-c2ccccc2C)c1 [Example 946] | 52
CSCC[C@H](NC(=O)c1ccc(NC[C@H]2NCC[C@H]2S)cc1-c1ccccc1)C(=O)O [Example 960] | > 50
CSCC[C@H](NC(=O)c1ccc(CN(CCC2CCCCC2)Cc2cncs2)cc1-c1ccccc1C)C(=O)O [Example 986] | 95
CSCC[C@H](NC(=O)c1ccc(CN2CCC[C@H]2COCC2CCCCC2)cc1-c1ccccc1C)C(=O)O [Example 992] | 93

Next, values leading:

% inhibition at 1 × 10^-8 M [%] | Structure (SMILES)
74 | CCCCS(=O)(=O)N(CCCc1ccccc1)Cc1ccc(C(=O)N[C@@H](CCSC)C(=O)O)c(-c2ccccc2C)c1 [Example 927]
84 | CCCCN(CCc1ccccc1)Cc1ccc(C(=O)N[C@@H](CCSC)C(=O)O)c(-c2ccccc2C)c1 [Example 928]
69 | CSCC[C@H](NC(=O)c1ccc(CN2CCC[C@H]2COc2ccccc2)cc1-c1ccccc1C)C(=O)O [Example 991]
92 | CCSC[C@H](CCc1ccccc1)NCc1ccc(C(=O)N[C@@H](CCSC)C(=O)O)c(-c2ccccc2C)c1 [Example 995]

same assay, conditions: read-out: % inhibition at 1 × 10^-6 M; Table 2; 1 × 10^-6 M

inhibition at 1 µM [%] | Structure (SMILES)
78 | CSCC[C@H](NC(=O)c1cc(Cc2ccccc2)c(COCc2ccccc2)cc1-c1ccccc1C)C(=O)O [Example 923, N-[5-Benzyl-4-benzyloxymethyl-2-(2-methylphenyl)benzoyl]methionine]
77 | CSCC[C@H](NC(=O)c1cc(Cc2ccccc2)c(COCc2ccco2)cc1-c1ccccc1C)C(=O)O [Example 924]
87 | CSCC[C@H](NC(=O)c1cc(Cc2ccccc2)c(COCCCc2ccccc2)cc1-c1ccccc1C)C(=O)O [Example 925]
95 | COc1ccc(CCOCc2ccc(C(=O)N[C@@H](CCSC)C(=O)O)c(-c3ccccc3C)c2)cc1 [Example 937, N-[4-(2-(4-methoxyphenyl)ethoxymethyl)-2-(2-methylphenylbenzoyl]methioninelithium salt]
93 | CSCC[C@H](NC(=O)c1ccc(COC2CCN(Cc3ccccc3)C2)cc1-c1ccccc1C)C(=O)O (some centres unmarked) [Example 987, N-[4-(1-benzylpyrrolidin-3-oxymethyl)-2-(2-methylphenyl)benzoyl]methionine]

same assay, conditions: read-out: % inhibition at 1 × 10^-7 M

Structure (SMILES) | inhibition at 0.1 µM [%]
COc1ccccc1COCc1ccc(C(=O)N[C@@H](CCSC)C(=O)O)c(-c2ccccc2C)c1 [Example 931, N-[4-(2-methoxybenzyloxymethyl)-2-(2-methylphenyl)benzoyl]methionine lithium salt] | 98
CSCC[C@H](NC(=O)c1ccc(COCc2ccc(Cl)cc2)cc1-c1ccccc1C)C(=O)O [Example 933, N-[4-(4-chlorobenzyloxymethyl)-2-(2-methylphenyl)benzoyl]methionine lithium salt] | 91
COc1ccc(COCc2ccc(C(=O)N[C@@H](CCSC)C(=O)O)c(-c3ccccc3C)c2)cc1 [Example 935, N-[4-(4-methoxybenzyloxymethyl)-2-(2-methylphenyl)benzoyl]methionine lithium salt] | 72
CSCC[C@H](NC(=O)c1ccc(COCc2ccc(C(C)C)cc2)cc1-c1ccccc1C)C(=O)O [Example 940, N-[4-(4-isopropylbenzyloxymethyl)-2-(2-methylphenyl)benzoyl]methionine lithium salt] | 92

same assay, conditions: read-out: % inhibition at 1 × 10^-7 M; Table 3; 1 × 10^-7 M

inhibition at 0.1 µM [%] | Structure (SMILES)
90 | CSCC[C@H](NC(=O)c1ccc(COCc2cccc(N(C)C)c2)cc1-c1ccccc1C)C(=O)O [Example 941, N-[4-(3-N,N-dimethylaminobenzyloxymethyl)-2-(2-methylphenyl)benzoyl]methionine lithium salt]

same assay, conditions: read-out: % inhibition at 1 × 10^-8 M

Structure (SMILES) | inhibition at 0.01 µM [%]
CSCC[C@H](NC(=O)c1ccc(COCc2ccccc2Cl)cc1-c1ccccc1C)C(=O)O [Example 930, N-[4-(2-chlorobenzyloxymethyl)-2-(2-methylphenyl)benzoyl]methionine lithium salt] | 66
COc1cccc(COCc2ccc(C(=O)N[C@@H](CCSC)C(=O)O)c(-c3ccccc3C)c2)c1 [Example 932, N-[4-(3-methoxybenzyloxymethyl)-2-(2-methylphenyl)benzoyl]methionine lithium salt] | 60
CSCC[C@H](NC(=O)c1ccc(COCc2cccc(Cl)c2)cc1-c1ccccc1C)C(=O)O [Example 934, N-[4-(3-chlorobenzyloxymethyl)-2-(2-methylphenyl)benzoyl]methionine lithium salt] | 71
CSCC[C@H](NC(=O)c1ccc(COCc2ccccc2C(C)C)cc1-c1ccccc1C)C(=O)O [Example 938, N-[4-(2-isopropylbenzyloxymethyl)-2-(2-methylphenyl)benzoyl]methionine lithium salt] | 61
CSCC[C@H](NC(=O)c1ccc(COCc2cccc(C(C)C)c2)cc1-c1ccccc1C)C(=O)O [Example 939, N-[4-(3-isopropylbenzyloxymethyl)-2-(2-methylphenyl)benzoyl]methionine lithium salt] | 72
CCCCC(CCCC)OCc1ccc(C(=O)N[C@@H](CCSC)C(=O)O)c(-c2ccccc2C)c1 [Example 942, N-[4-(nonan-5-yloxymethyl)-2-(2-methylphenyl)benzoyl]methionine lithium salt] | 58

same assay, conditions: read-out: % inhibition at 1 × 10^-8 M; Table 4; 1 × 10^-8 M

inhibition at 0.01 µM [%] | Structure (SMILES)
79 | CCCCC(Cc1ccccc1Cl)OCc1ccc(C(=O)N[C@@H](CCSC)C(=O)O)c(-c2ccccc2C)c1 (some centres unmarked) [Example 943, N-[4-(1-(2-chlorophenyl)hexan-2-yloxymethyl)-2-(2-methylphenyl)benzoyl]methioninelithium salt]
89 | CCCCC(OCc1ccc(C(=O)N[C@@H](CCSC)C(=O)O)c(-c2ccccc2C)c1)c1cncs1 (some centres unmarked) [Example 985]
83 | CSCC[C@H](NC(=O)c1ccc(CO[C@H](CSC(C)(C)C)Cc2ccccc2)cc1-c1ccccc1C)C(=O)O [Example 994, N-[4-(1-t-butylthio-3-phenylprop-2-oxymethyl)-2-(2-methylphenyl)benzoyl]methionine]
